Here are results for one molecule from patent US11981626B1, “Compound embodiments for hydrogen sulfide production and methods of making and using the same” (University of Oregon, priority 2018, dated 2024).

Data set [1] is described as follows: COS/H2S release monitored by PNA formation (UV-Vis) in PBS containing CA. In kind it is physicochemical. The settings on record: for half-life at 50 μM: PBS containing carbonic anhydrase (CA); for half-life at 50 μM / kobs (COS/H2S releasing kinetics): 37° C.; for kobs (COS/H2S releasing kinetics): CA 25 μg/mL, 50 μM; for krel: relative to γ-KetoTCM-1 at pH 7.4. As to the method: To investigate COS/H2S release from donor compound embodiments, γ-KetoTCM-1 (50 μM) was incubated in PBS (pH 7.4, 10 mM) containing CA (25 μg/mL) and H2S release was detected by monitoring para-nitroaniline (PNA) formation at 37° C. In particular, a γ-KetoTCM-1 stock solution (15.0 μL, 10.0 mM in DMSO) was added to 3.00 mL of PBS (pH 6.00, 7.40 or 8.00, 10.0 mM) containing CA (25.0 μg/mL) in a quartz UV cuvette. The absorbance (250-500 nm) was measured and recorded by using Agilent Cary 100 or Cary 60 UV-Vis spectrometers at 37° C. kobs was then obtained by plotting the absorbance ratio of PNA and γ-KetoTCM-1 versus time and t1/2 was calculated by dividing In(2) by kobs.
In this example, pH effects on COS/H2S release were investigated by incubating γ-KetoTCM-1 (50 μM) in PBS (pH 6.0-8.0) and monitoring with a UV-Vis spectrometer. […] In particular, a γ-KetoTCM-1 stock solution (15.0 μL, 10.0 mM in DMSO) was added to 3.00 mL of PBS (pH 6.00, 10.0 mM) containing CA (25.0 μg/mL) in a 3-mL UV cuvette. The absorbance (250-500 nm) was measured and recorded at 37° C. kobs was then obtained by plotting the absorbance ratio of PNA and γ-KetoTCM-1 vs time.

Data set [2] can be described thus: H2S production measured by methylene blue (MB) assay in PBS containing BSA and CA. In kind it is physicochemical. The settings on record: 37° C. Here is the method:
Using the same conditions, H2S production was measured at different time points using the MB assay (FIG. 5A, curve labeled with the “▾” symbol). The MB assay allows for H2S quantification from the reaction of H2S with N,N-dimethyl-p-phenylenediamine in the presence of FeCl3 and acid to produce methylene blue (MB, λmax=670). In the MB assay, a γ-KetoTCM-1 stock solution (100 μL, 10.0 mM in DMSO) was added to 20.0 mL of PBS (pH 7.40, 10.0 mM) containing BSA (5.00 mg/mL) and CA (25.0 μg/mL) in a 25-mL scintillation vial at 37° C. Next, 0.300 mL aliquots of the reaction mixture were transferred to UV cuvettes containing 0.300 mL of MB cocktail at different time points. The MB reaction mixture was incubated at room temperature for 1 hour and the precipitate was removed using syringe filters. The absorbance at 670 nm was then measured and was converted to H2S concentration by using the H2S calibration curve in FIG. 6. […] The MB solution was allowed to react with H2S for 1 hour before measuring the absorbance at 670 nm.
The linearity between these two methods was lost after 60 minutes due to the oxidation of H2S in the MB assay at extended incubation times (FIG. 5A). […] The absorbance at 670 nm was then measured and converted to H2S concentration by using the H2S calibration curve in FIG. 6. […]

SMILES strings stand for the structures.

As to `CC(=O)CCOC(=S)Nc1ccc([N+](=O)[O-])cc1` [γ-KetoTCM-1], the half-life at 50 μM in data set [1] (pH 6, pH 6.0 PBS, ln(2)/kobs) is 3040 ± 48 min; in data set [1] (pH 7.4, pH 7.4 PBS, ln(2)/kobs), 256 min; in data set [1] (pH 8, pH 8.0 PBS), 91.8 ± 1.8 min. The “kobs (COS/H2S releasing kinetics)” value is reported as 0.380 ± 0.006 ×10^−5 s^−1 in data set [1] (pH 6.0 PBS), 4.52±0.02 ×10^−5 s^−1 in data set [1] (pH 7.4 PBS) and 12.6 ± 0.2 ×10^−5 s^−1 in data set [1] (pH 8.0 PBS). The krel in data set [1] (pH 6.0 PBS) is listed as 0.084; in data set [1] (pH 7.4 PBS), 1.00; in data set [1] (pH 8.0 PBS) it was 2.79. This molecule also had an H2S release efficiency in data set [2] (MB assay, 50 μM, PBS pH 7.4, BSA) of 70%. The “pseudo first-order rate constant kobs from fitting the MB data” value in data set [2] (PBS pH 7.4, BSA 5 mg/mL, up to plateau (~60 minutes)) is listed as 8.6±0.9 ×10^−4 s^−1.
